Data on 3 compounds can be found in patent publication US20150355456A1, “ELECTROWETTING FLUIDS” (MERCK PATENT GMBH, priority 2013, published 2015).

Structures are written as SMILES.

The nature of series [1]: Solubility from absorbance of a filtered over-saturated dye sample. The format is physicochemical. To be noted: concentration extrapolated via calibration curve and Beer Lambert Law. As for the experimental part:
(§1) a) Dye mixtures using the novel dyes are prepared to obtain neutral black samples that can be used in EWD. b) Solubility is measured by filtering an over-saturated sample of dissolved dye, measuring the resulting absorbance value, and extrapolating the concentration using a calibration curve and Beer Lambert Law (Absorbance=∈cl, where ∈ is the extinction coefficient of the material, calculated from a calibration curve, c is concentration, and l is the path length of the measurement). c) The absorbance is measured using a Hitachi U3310 spectrophotometer with a 5 micron path length under a single pass transmission measurement condition. d) The impact of the dye on the electrical properties is measured by comparing the dielectric constant of a series of formulations with increasing dye content. There is a linear relationship between dye concentration and dielectric constant, the gradient of which is indicative of the polarisability of the dye. This gradient value is denoted as an ‘alpha value’. A low alpha value indicates a smaller change in dielectric constant as dye concentration increases, and is desirable. High alpha values indicate that the dye has a large impact on the dielectric constant of the solvent, which will likely have a negative impact on the behaviour of the fluid in an electrowetting display pixel.

A short description of series [2]: Alpha value: gradient of dielectric constant against dye concentration (polarisability). In kind it is physicochemical. To be noted: gradient of dielectric constant vs dye concentration; low value desirable. As for the experimental part:
as §1

Series [3] can be described thus: Extinction coefficient from calibration curve. The format is physicochemical. To be noted: extinction coefficient calculated from calibration curve.

For the compound `CCCCCCCCCCCCCC1(C)Nc2cccc3c(/N=N/c4ccc(/N=N/c5ccc(CCCC)cc5)c5ccccc45)ccc(c23)N1` (stereo not shown) [Dye 1, 6-((E)-(4-((E)-(4-Butylphenyl)diazenyl)naphthalen-1-yl)diazenyl)-2-methyl-2-tridecyl-2,3-dihydro-1H-perimidine], the melting point (usually the temperature, or range, at which the solid turns liquid) was in the range of 79 to 81 °C. The Solubility % in series [1] is 0.22%.
On to `CCCCCCCCCCCCCC1(C)N(CCCCCCCC)c2cccc3c(/N=N/c4ccc(/N=N/c5ccc(CCCC)cc5)c5ccccc45)ccc(c23)N1CCCCCCCC` (stereo not shown) [Dye 2, 6-((E)-(4-((E)-(4-butylphenyl)diazenyl)naphthalen-1-yl)diazenyl)-2-methyl-1,3-dioctyl-2-tridecyl-2,3-dihydro-1H-perimidine], for which, in series [1], the Solubility % is reported as 19.53%. Moreover, in series [2], the Alpha value turned out to be 2.9360. Further, the εmax in series [3] is recorded as 40107.
Take `CCCCc1ccc(/N=N/c2cc(OCC(CC)CCCC)c(/N=N/c3ccc(N(CC(CC)CCCC)CC(CC)CCCC)cc3C)cc2C)cc1` (stereo not shown) [Dye 14, 4-((E)-(4-((E)-(4-butylphenyl)diazenyl)-2-(2-ethylhexyloxy)-5-methylphenyl)diazenyl)-N,N-bis(2-ethylhexyl)-3-methylaniline]: the Solubility % in series [1] was 28.66%. Also, the εmax in series [3] is listed as 38954.
